Data as given in US4698352A, “4-oxo-1,4-dihydronicotinic acid derivatives, salts thereof, and antibacterial agents containing the same” (Toyama Chemical Co., Ltd., priority 1982, dated 1987).
Values after ≈ are worked out from the molar mass of the structure shown. Read-outs that look alike come from different tables or passages of the source.

Tests used:
Assay in all cases: Antibacterial activity (MIC), agar dilution
Type in all cases: cell-based
St. aureus F-137* = settings: Staphylococcus aureus, 20 h, St. aureus F-137, penicillinase-producing; 10^6 cells per ml; read-out: MIC
Description: (§1) The amount of bacteria inoculated was 10^4 cells per plate (10^6 cells per ml).
(§2) * Penicillinase-producing bacteria

E. coli TK-3* = settings: Escherichia coli, 20 h
Description: as §1, §2

Kl. pneumoniae Y-4* = settings: Klebsiella pneumoniae, 20 h, Kl. pneumoniae Y-4, penicillinase-producing; 10^6 cells per ml; read-out: MIC
Description: as §1, §2

Ps. aeruginosa GN3379* = settings: Pseudomonas aeruginosa, 20 h; Ps. aeruginosa GN3379, penicillinase-producing; 10^6 cells per ml; read-out: MIC
Description: as §1, §2

Pro. vulgaris GN76** = settings: Proteus vulgaris
Description: as §1
(§3) ** Cephalospolinase-producing bacteria

E. coli GN5482** = settings: Escherichia coli
Description: as §1, §3

Ps. aeruginosa GN918** = settings: Pseudomonas aeruginosa, Ps. aeruginosa GN918, cephalospolinase-producing, 10^6 cells per ml
Description: as §1, §3

Kl. pneumoniae Y-41 = settings: Klebsiella pneumoniae, Y41, 10^6 cells per ml, 37° C., 20 hours, read-out: MIC
Description: as §1

St. aureus FDA209P = settings: Staphylococcus aureus, FDA209P, 20 h
Description: as §1

E. coli TK-111 = settings: Escherichia coli, TK111, 20 h, E. coli TK-111; 10^6 cells per ml; 37° C., 20 hours; read-out: MIC
Description: as §1

Kl. pneumoniae Y-50 = settings: Klebsiella pneumoniae, Y50, 20 h, 10^6 cells per ml, 37° C., read-out: MIC
Description: as §1

Ps. aeruginosa IFO3445 = settings: Pseudomonas aeruginosa; Ps. aeruginosa IFO3445; 10^6 cells per ml; 37° C., 20 hours; read-out: MIC
Description: as §1

Pro. morganii T-216 = settings: Morganella morganii, 37° C.
Description: as §1

Pro. mirabilis T-111 = settings: Proteus mirabilis, 37° C.
Description: as §1

E. coli NIHJ JC-2 = settings: Escherichia coli, NIHJJC2, 20 h
Description: as §1

Pro. vulgaris GN3027 = settings: Proteus vulgaris, GN3027, 20 h, Pro. vulgaris GN3027; 10^6 cells per ml; 37° C., 20 hours; read-out: MIC
Description: as §1

Ent. cloacae IID977 = settings: Enterobacter cloacae, IID977, 20 h
Description: as §1

Aci. antitratus A-6 = settings: 20 h, Aci. antitratus A-6; 10^6 cells per ml; 37° C., 20 hours; read-out: MIC
Description: as §1

Ps. aeruginosa S-68 = settings: Pseudomonas aeruginosa
Description: as §1

[1] = E. coli TK-3, penicillinase-producing, 10^6 cells per ml, read-out: MIC
[2] = 20 h, Pro. vulgaris GN76, cephalospolinase-producing, 10^6 cells per ml, read-out: MIC
[3] = 20 h, E. coli GN5482, cephalospolinase-producing, 10^6 cells per ml, read-out: MIC
[4] = St. aureus FDA209P, 10^6 cells per ml, 37° C., 20 hours, read-out: MIC
[5] = T216, 10^6 cells per ml, 20 hours, read-out: MIC
[6] = T111, 10^6 cells per ml, 20 hours, read-out: MIC
[7] = E. coli NIHJ JC-2, 10^6 cells per ml, 37° C., 20 hours, read-out: MIC
[8] = Ent. cloacae IID977, 10^6 cells per ml, 37° C., 20 hours, read-out: MIC
[9] = S68, Ps. aeruginosa S-68, 10^6 cells per ml, 37° C., 20 hours, read-out: MIC

Structure (SMILES) | MIC (St. aureus F-137*) | MIC (E. coli TK-3*; [1]) | MIC (Kl. pneumoniae Y-4*) | MIC (Ps. aeruginosa GN3379*) | MIC (Pro. vulgaris GN76**; [2]) | MIC (E. coli GN5482**; [3]) | MIC (Ps. aeruginosa GN918**; 20 h, read-out: MIC) | MIC (Kl. pneumoniae Y-41) | MIC (St. aureus FDA209P; [4]) | MIC (E. coli TK-111) | MIC (Kl. pneumoniae Y-50) | MIC (Ps. aeruginosa IFO3445) | MIC (Pro. morganii T-216; [5]) | MIC (Pro. mirabilis T-111; [6]) | MIC (E. coli NIHJ JC-2; [7]) | MIC (Pro. vulgaris GN3027) | MIC (Ent. cloacae IID977; [8]) | MIC (Aci. antitratus A-6) | MIC (Ps. aeruginosa S-68; [9]) | MIC (Pro. morganii T-216; T216, 20 h, 10^6 cells per ml) | other results
O=C(O)c1cn(-c2ccc(O)cc2)c(-c2ccc(-n3cccn3)cc2)cc1=O | 0.39 µg/mL (≈ 1.04 µM) | 0.2 µg/mL (≈ 0.536 µM) | 0.78 µg/mL (≈ 2.09 µM) | 6.25 µg/mL (≈ 16.7 µM) | 1.56 µg/mL (≈ 4.18 µM) | ≤ 0.05 µg/mL | 3.13 µg/mL (≈ 8.38 µM) | 0.78 µg/mL (≈ 2.09 µM) | 0.39 µg/mL (≈ 1.04 µM) | ≤ 0.05 µg/mL | 0.2 µg/mL (≈ 0.536 µM) | 6.25 µg/mL (≈ 16.7 µM) | 1.56 µg/mL (≈ 4.18 µM) | 3.13 µg/mL (≈ 8.38 µM) | 0.1 µg/mL (≈ 0.268 µM) | 0.39 µg/mL (≈ 1.04 µM) | 0.2 µg/mL (≈ 0.536 µM) | 0.78 µg/mL (≈ 2.09 µM) | 6.25 µg/mL (≈ 16.7 µM) |  | 
Cc1nc(-c2ccc(-c3cc(=O)c(C(=O)O)cn3-c3ccc(O)cc3C)cc2)cs1 | ≤ 0.05 µg/mL | 0.39 µg/mL (≈ 0.932 µM) | 1.56 µg/mL (≈ 3.73 µM) | 6.25 µg/mL (≈ 14.9 µM) | 0.39 µg/mL (≈ 0.932 µM) | ≤ 0.05 µg/mL | 0.39 µg/mL (≈ 0.932 µM) | 1.56 µg/mL (≈ 3.73 µM) | ≤ 0.05 µg/mL | ≤ 0.05 µg/mL | 0.2 µg/mL (≈ 0.478 µM) | 3.13 µg/mL (≈ 7.48 µM) |  | 0.78 µg/mL (≈ 1.86 µM) | 0.1 µg/mL (≈ 0.239 µM) | 0.39 µg/mL (≈ 0.932 µM) | 0.39 µg/mL (≈ 0.932 µM) | ≤ 0.05 µg/mL | 3.13 µg/mL (≈ 7.48 µM) | 1.56 µg/mL (≈ 3.73 µM) | 
Cc1nc(-c2ccc(-c3cc(=O)c(C(=O)O)cn3-c3ccc(F)cc3)cc2)co1 | 0.39 µg/mL (≈ 0.999 µM) | 3.13 µg/mL (≈ 8.02 µM) | 12.5 µg/mL (≈ 32 µM) | 25 µg/mL (≈ 64 µM) | 3.13 µg/mL (≈ 8.02 µM) | 0.2 µg/mL (≈ 0.512 µM) | 3.13 µg/mL (≈ 8.02 µM) | 6.25 µg/mL (≈ 16 µM) | 0.39 µg/mL (≈ 0.999 µM) | 0.39 µg/mL (≈ 0.999 µM) | 1.56 µg/mL (≈ 4 µM) | 25 µg/mL (≈ 64 µM) |  |  | 0.78 µg/mL (≈ 2 µM) | 0.39 µg/mL (≈ 0.999 µM) | 3.13 µg/mL (≈ 8.02 µM) | 0.2 µg/mL (≈ 0.512 µM) |  | 6.25 µg/mL (≈ 16 µM) | MIC (Pro. mirabilis T-111; T111, 20 h, 10^6 cells per ml): 6.25 µg/mL (≈ 16 µM); MIC (Ps. aeruginosa S-68; S68, 20 h): 12.5 µg/mL (≈ 32 µM)
CN1CCCc2cc(-c3cc(=O)c(C(=O)O)cn3-c3ccc(O)cc3)ccc21 | 0.2 µg/mL (≈ 0.531 µM) |  | 6.25 µg/mL (≈ 16.6 µM) | 12.5 µg/mL (≈ 33.2 µM) |  | ≤ 0.05 µg/mL |  | 3.13 µg/mL (≈ 8.32 µM) | 0.39 µg/mL (≈ 1.04 µM) | 0.2 µg/mL (≈ 0.531 µM) | 1.56 µg/mL (≈ 4.14 µM) | 12.5 µg/mL (≈ 33.2 µM) |  |  | 0.39 µg/mL (≈ 1.04 µM) | 0.78 µg/mL (≈ 2.07 µM) |  | 0.39 µg/mL (≈ 1.04 µM) |  | 3.13 µg/mL (≈ 8.32 µM) | MIC (E. coli TK-3*): 1.56 µg/mL (≈ 4.14 µM); MIC (Pro. vulgaris GN76**; GN76, 20 h): 1.56 µg/mL (≈ 4.14 µM); MIC (Ps. aeruginosa GN918**; GN918, 20 h): 3.13 µg/mL (≈ 8.32 µM); MIC (Pro. mirabilis T-111; T111, 20 h, 10^6 cells per ml): 3.13 µg/mL (≈ 8.32 µM); MIC (Ent. cloacae IID977): 1.56 µg/mL (≈ 4.14 µM); MIC (Ps. aeruginosa S-68; S68, 20 h): 6.25 µg/mL (≈ 16.6 µM)
CN1CCc2cc(-c3cc(=O)c(C(=O)O)cn3-c3ccc(O)cc3)ccc21 | 0.1 µg/mL (≈ 0.276 µM) | 0.39 µg/mL (≈ 1.08 µM) | 1.56 µg/mL (≈ 4.3 µM) | 6.25 µg/mL (≈ 17.2 µM) | 0.39 µg/mL (≈ 1.08 µM) | ≤ 0.05 µg/mL |  | 1.56 µg/mL (≈ 4.3 µM) | 0.2 µg/mL (≈ 0.552 µM) | ≤ 0.05 µg/mL | 0.39 µg/mL (≈ 1.08 µM) | 12.5 µg/mL (≈ 34.5 µM) | 0.78 µg/mL (≈ 2.15 µM) | 3.13 µg/mL (≈ 8.64 µM) | 0.2 µg/mL (≈ 0.552 µM) | 0.2 µg/mL (≈ 0.552 µM) | 0.78 µg/mL (≈ 2.15 µM) | 0.39 µg/mL (≈ 1.08 µM) | 6.25 µg/mL (≈ 17.2 µM) |  | MIC (Ps. aeruginosa GN918**; GN918, 20 h): 1.56 µg/mL (≈ 4.3 µM)
CC1Cc2cc(-c3cc(=O)c(C(=O)O)cn3-c3ccc(O)cc3)ccc2O1 (stereo not drawn) | 3.13 µg/mL (≈ 8.61 µM) | 3.13 µg/mL (≈ 8.61 µM) | 12.5 µg/mL (≈ 34.4 µM) | 25 µg/mL (≈ 68.8 µM) | 3.13 µg/mL (≈ 8.61 µM) |  |  | 6.25 µg/mL (≈ 17.2 µM) |  | 0.78 µg/mL (≈ 2.15 µM) | 1.56 µg/mL (≈ 4.29 µM) | 50 µg/mL (≈ 138 µM) | 3.13 µg/mL (≈ 8.61 µM) |  |  | 0.78 µg/mL (≈ 2.15 µM) | 3.13 µg/mL (≈ 8.61 µM) | 3.13 µg/mL (≈ 8.61 µM) | 25 µg/mL (≈ 68.8 µM) |  | MIC (E. coli GN5482**; GN5482, 20 h): 1.56 µg/mL (≈ 4.29 µM); MIC (Ps. aeruginosa GN918**; GN918, 20 h): 12.5 µg/mL (≈ 34.4 µM); MIC (St. aureus FDA209P): 1.56 µg/mL (≈ 4.29 µM); MIC (Pro. mirabilis T-111; T111, 20 h, 10^6 cells per ml): 12.5 µg/mL (≈ 34.4 µM); MIC (E. coli NIHJ JC-2): 1.56 µg/mL (≈ 4.29 µM)
